Data reported in US20240165311A1, “STEM CELLS FOR USE IN ECMO TECHNOLOGY” (priority 2021, published 2024).

Assays:
[1] = system: human PBMCs activated with anti-CD3/anti-CD28; experiment: PBMC:MSC co-culture, cell composition after 24 hours of activation (FACS); conditions: Prednisolone 125 nM
Experimental: (§1) Freshly isolated human PBMCs, pooled from three donors, were activated with anti-CD3/anti-CD28 at 10 μg/ml and 5 μg/ml respectively in presence of MSCs ex vivo for 24 or 72 hours. Following activation, cells were analysed for effects on cellular composition after 24 hours and for effects on cellular composition and cell proliferation using CFSE after 72 hours. In addition, supernatants collected after 24 hours of activation were analysed for cytokine levels using Luminex.
(§2) Peripheral Blood Mononuclear Cells (PBMCs) were isolated from leucocyte concentrate from three different donors (acquired from Blodcentralen, Lunds Universitetssjukhus, Lund, Sweden) through gradient centrifugation at 400×g for 40 minutes using Ficoll. Red blood cells (RBCs) were lysed using BD Pharmlyse buffer 10× diluted in milliQ water for 3 minutes at room temperature (RT). Cells were washed and the isolated PBMCs were pooled. Cell concentration was determined using a Scepter cell counter (Millipore Merck, MA. USA). Cells were diluted to 1×10^7 cells/ml in PBS. Pooled PBMCs were split into 2 different tubes. Cells in tube 1 was stained with CFSE at 5 μM for 5 minutes (dark, RT). CFSE stained cells were washed with an equal volume of FBS to stop the reaction and washed again with PBS. Cells in tube two was left in PBS.
(§3) MSCs (donor 1, donor 2, donor 3, and AD-MSC control cells) were provided in 8 different tubes, two for each cell type (in different medias (M3 and M4). All cells (PBMCs and MSCs) were diluted in the two different cell culture media (M3 and M4) to a final concentration of 2*10^6 cells/ml. Media was supplemented with anti-CD28 at 5 μg/ml. Cells were added to anti-CD3 (1 μg/well, 100 μl/well) coated U bottom cell culture plates according to the layout below, 200 μl/well in different PBMC:MSC ratios (1:10, 1:5, 1:2.5, 1:0 and 0:1) with a total amount of cells at 4*10^5 cells/well.
(§4) Included in the assay were also controls (stimulated and unstimulated PBMCs) and two reference drugs, e.g. cyclosporine (CsA) and Prednisolone (Pred). When plating controls, cells were spun down and diluted in M3 or M4 at 4*10^6 cells/ml, with a total amount of cells at 4*10^5 cells/well. 100 μl PBMCs were added per well. CsA was added at a final concentration of 10 μg/ml and Prednisolone was added at a final concentration of 125 nM (700 μl/well). Medium was added to unstimulated control wells (700 μl/well). Cells were incubated for 24 or 72 hours at 37° C., 5% CO2. See also FIG. 19.
Following 24 hours of incubation, cells in FACS/Luminex plates were stained with antibodies detecting CD73, CD4, CD8, CD80, CD206, CD163 and PD-1 in staining buffer (PBS supplemented with 1% BSA). Briefly, cells were transferred to V bottom plates and centrifuged at 360×g for 2 min. Supernatant was transferred to a storage plate and put in −20° C. until analysis using Luminex. Cells were washed in PBS, centrifuged at 360×g for 2 min at 4° C. Supernatant was flicked off and antibodies against surface markers were added. Cells were incubated at +4° C. for 20 minutes (dark). After incubation, cells were washed 1× in PBS, centrifuged at 360×g for 2 min at 4° C. Cells were resuspended in PBS and acquired using the Attune Nxt flow cytometer. Compensation was performed using beads—AbC Total Compensation capture beads and negative beads. Since compensation was done using beads, FSC and SSC were changed before analysing samples and adjusted to cells. Lasers were not changed after compensation. 150 μl was analysed from each sample.

[2] = system: human PBMCs activated with anti-CD3/anti-CD28; experiment: PBMC:MSC co-culture, proliferation and cell composition after 72 hours of activation (FACS after CFSE labeling); conditions: MSCs in co-culture, Prednisolone 125 nM
Experimental: as §1, §2, §3, §4
After 72 hours of incubation, CFSE stained cells were stained with CD4, CD8, CD80, CD206 and CD163 in staining buffer. Briefly, cells were transferred to V bottom plates, centrifuged at 360×g for 2 min. Cells were washed in PBS, centrifuged at 360×g for 2 min at 4° C. Supernatant was flicked off and surface markers were added. Cells were incubated at +4° C. for 20 minutes. After incubation, cells were washed 1× in PBS, centrifuged at 360×g for 2 min at 4° C. Cells were resuspended in PBS and acquired using the Attune Nxt flow cytometer. Compensation was performed using beads—AbC Total Compensation capture beads and negative beads for surface markers. For CFSE compensation, newly CFSE stained cells were used. Since compensation was done using both beads and cells, FSC and SSC were changed and adjusted to beads or cells. […]
Graphs were performed using Prism 8 for Mac OS X (GraphPad Software, San Diego, CA, USA). […] The inhibitory effect of MSCs on PBMC proliferation was calculated according to the two formulas below: […]

[3] = system: human PBMCs activated with anti-CD3/anti-CD28; experiment: Cytokine analysis after 24 hours of activation (Luminex); assay type: cell-based; conditions: stimulated PBMCs, Prednisolone 125 nM
Experimental: Cells were washed and the isolated PBMCs were pooled. […] Pooled PBMCs were split into 2 different tubes. […] Cells in tube two was left in PBS. […] See also FIG. 19. Supernatant (24 hours incubation) was analysed for cytokines using the 12-[…]-12 Luminex kit. All reagents, standard and samples were prepared at room temperature and according to manufacturer's instruction. Briefly, 50 μl of standard or sample was added to wells. Microparticles were added to samples and standard and samples were incubated for 2 hours at room temperature on a horizontal orbital shaker (800 rpm). Plate was washed 3× in washing buffer using a magnetic plate. Biotin-antibody was added and incubated dark for 1 hour at room temperature on a horizontal orbital shaker (800 rpm). Plate was washed 3× in washing buffer using a magnetic plate. Streptavidin-PE was added to each well and incubated dark at room temperature on a horizontal orbital shaker (800 rpm) for 30 minutes. Plate was washed 3× in washing buffer using a magnetic plate. Microparticles were resuspended in 100 μl washing buffer, incubated for 2 minutes on a horizontal orbital shaker (800 rpm). Samples were analysed on a Bio-Rad Luminex analyzer.

SMILES: C[C@]12C=CC(=O)C=C1CC[C@@H]1[C@@H]2[C@@H](O)C[C@@]2(C)[C@H]1CC[C@]2(O)C(=O)CO [Prednisolone]
- M2 macrophage expression ([1]; CsA 10 μg/ml): no effect
- expression level of M1 macrophages ([1]; CsA 10 μg/ml): no effect
- macrophage cell composition [1]: did not have an effect
- T cell activation ([1]; reference drug treated PBMCs, CsA 10 μg/ml): only slightly inhibits
- % T helper cells ([1]; reference drug treated PBMCs): higher levels
- T helper cells (% ) ([2]; 72 hours of incubation, CsA 10 μg/ml): no effect
- M1 proliferation (CFSE) ([2]; 72 hours, CsA 10 μg/ml): No effect
- M2 expression levels ([2]; 72 hours, CsA 10 μg/ml): no effect
- M2 proliferation (CFSE) ([2]; 72 hours, CsA 10 μg/ml): No effect
- M1 expression levels ([2]; 72 hours): no effect
- IL-6 levels in supernatant ([3]; CsA 10 μg/ml): inhibits
- the other analysed cytokines, levels in supernatant ([3]; CsA 10 μg/ml, 12-plex Luminex): No inhibitory effect
- TNF-α levels in supernatant ([3]; MSCs at all ratios, CsA 10 μg/ml): inhibits
- IL12/IL23p40 levels in supernatant ([3]; MSCs at all ratios): inhibits
- HGF levels in supernatant ([3]; MSCs dose-dependent, CsA 10 μg/ml): inhibits
